In ChEMBL document CHEMBL5331107 (J Med Chem, 2023):

Key:
[1] = Acute toxicity in Kunming mouse assessed as effect on anorexia at 1000 mg/kg, IG administered as single dose and measured after 7 days; format: organism-based; conditions: in vivo, po, 168 h, time 7 day
[2] = Subacute toxicity in Kunming mouse assessed as histopathological change in lung at 50 mg/kg, IG administered via gavage every other day and measured after 14 days by H&E staining based analysis; format: organism-based; conditions: in vivo, po, 336 h, time 14 day
[3] = tested on: Human immunodeficiency virus 1; assay: Antiviral activity against NNRTI-resistant HIV-1 harboring K103N mutant infected in human MT4 cells assessed as protection against virus-induced cytopathic effect incubated for 5 days by MTT assay; format: functional, organism-based; conditions: Human immunodeficiency virus 1, MT4, 120 h
[4] = Tmax in Sprague-Dawley rat at 10 mg/kg, po measured at 15 to 720 min by LC-MS/MS analysis; format: ADME, organism-based; conditions: in vivo, time 15-720 min
[5] = MRT (0 to last) in Sprague-Dawley rat at 2 mg/kg, iv measured at 5 to 600 min by LC-MS/MS analysis; format: ADME, organism-based; conditions: in vivo, time 5-600 min
[6] = Clearance in Sprague-Dawley rat at 2 mg/kg, iv measured at 5 to 600 min by LC-MS/MS analysis; format: ADME, organism-based; conditions: in vivo, time 5-600 min
[7] = Volume of distribution in Sprague-Dawley rat at 2 mg/kg, iv measured at 5 to 600 min by LC-MS/MS analysis; format: ADME, organism-based; conditions: in vivo, time 5-600 min
[8] = Metabolic stability in human liver microsomes assessed as intrinsic clearance incubated for 60 mins in the presence of NADPH by LC-MS/MS analysis; conditions: liver microsomes
[9] = Subacute toxicity in Kunming mouse assessed as histopathological change in kidney at 50 mg/kg, IG administered via gavage every other day and measured after 14 days by H&E staining based analysis; format: organism-based; conditions: in vivo, po, 336 h, time 14 day
[10] = MRT (0 to infinity) in Sprague-Dawley rat at 2 mg/kg, iv measured at 5 to 600 min by LC-MS/MS analysis; format: ADME, organism-based; conditions: in vivo, time 5-600 min
[11] = Subacute toxicity in Kunming mouse assessed as animal death at 50 mg/kg, IG administered via gavage every other day and measured after 14 days; format: organism-based; conditions: in vivo, po, 336 h, time 14 day
[12] = Half-life in Sprague-Dawley rat at 2 mg/kg, iv measured at 5 to 600 min by LC-MS/MS analysis; format: ADME, organism-based; conditions: in vivo, time 5-600 min
[13] = tested on: Human immunodeficiency virus 1; assay: Antiviral activity against NNRTI-resistant HIV-1 harboring F227L and V106A double mutant infected in human MT4 cells assessed as protection against virus-induced cytopathic effect incubated for 5 days by MTT assay; format: functional, organism-based; conditions: Human immunodeficiency virus 1, MT4, 120 h
[14] = Metabolic stability in human liver assessed as intrinsic clearance incubated for 60 mins in the presence of NADPH by LC-MS/MS analysis; format: ADME, tissue-based; conditions: read-out: CLH
[15] = Subacute toxicity in Kunming mouse assessed as alopecia at 50 mg/kg, IG administered via gavage every other day and measured after 14 days; format: organism-based; conditions: in vivo, po, 336 h, time 14 day
[16] = Subacute toxicity in Kunming mouse assessed as at 50 mg/kg, po administered every other day and measured after 14 days; format: organism-based; conditions: in vivo, 336 h, time 14 day
[17] = tested on: Human immunodeficiency virus 1; format: functional, organism-based; conditions: Human immunodeficiency virus 1, MT4, 120 h
[18] = AUC(0 to last) in Sprague-Dawley rat at 2 mg/kg, iv measured at 5 to 600 min by LC-MS/MS analysis; format: ADME, organism-based; parameters: dose 2 mg/kg, time upper 600 min, time lower 5 min, route iv; conditions: in vivo
[19] = Acute toxicity in Kunming mouse assessed as effect on body weight at 1000 mg/kg, IG administered as single dose and measured after 7 days; format: organism-based; conditions: in vivo, po, 168 h, time 7 day
[20] = Metabolic stability in human plasma assessed as half-life incubated for 120 mins by LC-MS/MS analysis; format: ADME, cell-free
[21] = Subacute toxicity in Kunming mouse assessed as lethargy at 50 mg/kg, IG administered via gavage every other day and measured after 14 days; format: organism-based; conditions: in vivo, po, 336 h, time 14 day
[22] = Acute toxicity in Kunming mouse upto 1000 mg/kg, IG administered as single dose and measured after 7 days; format: organism-based; conditions: in vivo, po, 168 h, time 7 day
[23] = Subacute toxicity in Kunming mouse assessed as histopathological change in heart at 50 mg/kg, IG administered via gavage every other day and measured after 14 days by H&E staining based analysis; format: organism-based; conditions: in vivo, po, 336 h, time 14 day
[24] = Subacute toxicity in Kunming mouse assessed as histopathological change in spleen at 50 mg/kg, IG administered via gavage every other day and measured after 14 days by H&E staining based analysis; format: organism-based; conditions: in vivo, po, 336 h, time 14 day
[25] = tested on: Human immunodeficiency virus 1; assay: Antiviral activity against NNRTI-resistant HIV-1 harboring E138K mutant infected in human MT4 cells assessed as protection against virus-induced cytopathic effect incubated for 5 days by MTT assay; format: functional, organism-based; conditions: Human immunodeficiency virus 1, MT4, 120 h
[26] = Acute toxicity in Kunming mouse assessed as effect on dyspnea at 1000 mg/kg, IG administered as single dose and measured after 7 days; format: organism-based; conditions: in vivo, po, 168 h, time 7 day
[27] = Acute toxicity in Kunming mouse assessed as tolerance at 1000 mg/kg, IG administered as single dose and measured after 7 days; format: organism-based; conditions: in vivo, po, 168 h, time 7 day
[28] = Acute toxicity in Kunming mouse assessed as effect on alopecia at 1000 mg/kg, IG administered as single dose and measured after 7 days; format: organism-based; conditions: in vivo, po, 168 h, time 7 day
[29] = tested on: Human immunodeficiency virus 1; format: functional, organism-based; conditions: Human immunodeficiency virus 1, MT4, 120 h; remark: listed apart in the source
[30] = AUC(0 to infinity) in Sprague-Dawley rat at 2 mg/kg, iv measured at 5 to 600 min by LC-MS/MS analysis; format: ADME, organism-based; parameters: time 5-600 min, dose 2 mg/kg, route iv; conditions: in vivo
[31] = Subacute toxicity in Kunming mouse assessed as effect on body weight at 50 mg/kg, IG administered via gavage every other day and measured after 14 days; format: organism-based; conditions: in vivo, po, 336 h, time 14 day
[32] = Half-life in Sprague-Dawley rat at 10 mg/kg, po measured at 15 to 720 min by LC-MS/MS analysis; format: ADME, organism-based; conditions: in vivo, time 15-720 min
[33] = Cytotoxicity against human MT4 cells assessed as reduction in cell viability incubated for 5 days by MTT assay; format: toxicity, cell-based; conditions: time 5 day
[34] = tested on: Human immunodeficiency virus 1; assay: Antiviral activity against NNRTI-resistant HIV-1 harboring L100I mutant infected in human MT4 cells assessed as protection against virus-induced cytopathic effect incubated for 5 days by MTT assay; format: functional, organism-based; conditions: Human immunodeficiency virus 1, MT4, 120 h
[35] = Acute toxicity in Kunming mouse assessed as effect on animal death at 1000 mg/kg, IG administered as single dose and measured after 7 days; format: organism-based; conditions: in vivo, po, 168 h, time 7 day
[36] = Metabolic stability in human plasma assessed as compound remaining incubated for 120 mins by LC-MS/MS analysis; format: ADME, cell-free; conditions: read-out: Stability
[37] = Subacute toxicity in Kunming mouse assessed as dyspnoea at 50 mg/kg, IG administered via gavage every other day and measured after 14 days; format: organism-based; conditions: in vivo, po, 336 h, time 14 day
[38] = AUC (0 to last) in Sprague-Dawley rat at 10 mg/kg, po measured at 15 to 720 min by LC-MS/MS analysis; format: ADME, organism-based; parameters: time upper 720 min, time lower 15 min, dose 10 mg/kg, route po; conditions: in vivo
[39] = Metabolic stability in human liver microsomes assessed as half-life incubated for 60 mins in the presence of NADPH by LC-MS/MS analysis; format: ADME, Microsome; conditions: liver microsomes
[40] = Cmax in Sprague-Dawley rat at 10 mg/kg, po measured at 15 to 720 min by LC-MS/MS analysis; format: ADME, organism-based; parameters: dose 10 mg/kg, time 15-720 min, route po; conditions: in vivo
[41] = MRT (0 to infinity) in Sprague-Dawley rat at 10 mg/kg, po measured at 15 to 720 min by LC-MS/MS analysis; format: ADME, organism-based; conditions: in vivo, time 15-720 min
[42] = molecular target: Human immunodeficiency virus type 1 reverse transcriptase (Human immunodeficiency virus 1, UniProt Q72547); assay: Inhibition of HIV-1 reverse transcriptase assessed as assessed as reduction of biotin-dUTP incorporation into […] incubated for 1 hrs by ELISA analysis
[43] = Subacute toxicity in Kunming mouse assessed as histopathological change in liver at 50 mg/kg, IG administered via gavage every other day and measured after 14 days by H&E staining based analysis; format: organism-based; conditions: in vivo, po, 336 h, time 14 day
[44] = Acute toxicity in Kunming mouse assessed as effect on lethargy at 1000 mg/kg, IG administered as single dose and measured after 7 days; format: organism-based; conditions: in vivo, po, 168 h, time 7 day
[45] = AUC (0 to infinity) in Sprague-Dawley rat at 10 mg/kg, po measured at 15 to 720 min by LC-MS/MS analysis; format: ADME, organism-based; parameters: dose 10 mg/kg, time upper 720 min, time lower 15 min, route po; conditions: in vivo
[46] = Subacute toxicity in Kunming mouse assessed as anorexia at 50 mg/kg, IG administered via gavage every other day and measured after 14 days; format: organism-based; conditions: in vivo, po, 336 h, time 14 day
[47] = Metabolic stability in human liver microsomes assessed as compound remaining measured after 60 mins in the presence of NADPH by LC-MS/MS analysis; format: ADME, Microsome; conditions: liver microsomes, read-out: Stability
[48] = tested on: Human immunodeficiency virus 1; format: functional, organism-based; conditions: Human immunodeficiency virus 1, MT4, 120 h; remark: listed apart in the source
[49] = tested on: Human immunodeficiency virus 1; assay: microbe, parasite or virus in culture; conditions: Human immunodeficiency virus 1, IIIB, MT4, 120 h
Description: Antiviral activity against wild type HIV-1 IIIB infected in human MT4 cells assessed as protection against virus-induced cytopathic effect incubated for 5 days by MTT assay

SMILES: CCC(=O)N1CCc2nc(Nc3ccc(C#N)cc3)nc(Oc3c(C)cc(C#N)cc3C)c2C1
- Activity [1]: Non-Toxic
- Activity [2]: Non-Toxic
- EC50 [3]: 0.00188 µM
- Tmax [4]: 30 min
- MRT last [5]: 38.9 min
- clearance [6]: 19.4 mL/min/kg
- Vd [7]: 0.771 L/kg
- microsomal CLint at 1 h [8]: 138 µL/min/mg
- Activity [9]: Non-Toxic
- MRT inf [10]: 39.8 min
- Activity [11]: Non-Toxic
- half-life [12]: 56.5 min
- EC50 [13]: 0.0388 µM
- CLint scaled [14]: 125 mL/min/kg
- Activity [15]: Non-Toxic
- Activity [16]: Non-Toxic
- EC50 [17]: 0.0109 µM
- AUC(0-t) [18]: 1730 ng·h/mL
- Activity [19]: Non-Toxic
- half-life [20]: > 289 min
- Activity [21]: Non-Toxic
- Activity [22]: Non-Toxic
- Activity [23]: Non-Toxic
- Activity [24]: Non-Toxic
- EC50 [25]: 0.011 µM
- Activity [26]: Non-Toxic
- Activity [27]: Non-Toxic
- Activity [28]: Non-Toxic
- EC50 [29]: 0.0149 µM
- AUC(0-inf) [30]: 1740 ng·h/mL
- Activity [31]: Non-Toxic
- half-life [32]: 142 min
- CC50 at 120 h [33]: 10.8 µM
- EC50 [34]: 0.0146 µM
- Activity [35]: Non-Toxic
- remaining at 2 h [36]: 97.1%
- Activity [37]: Non-Toxic
- AUC(0-t) [38]: 16 ng·h/mL
- half-life [39]: 10 min
- Cmax [40]: 7.71 ng/mL
- MRT inf [41]: 214 min
- IC50 [42]: 0.07 µM
- Activity [43]: Non-Toxic
- Activity [44]: Non-Toxic
- AUC(0-inf) [45]: 23.4 ng·h/mL
- Activity [46]: Non-Toxic
- remaining at 1 h [47]: 1.6%
- EC50 [48]: 0.031 µM
- EC50 [49]: 0.00271 µM
